From US20240132484A1, “BROAD SPECTRUM ANTIVIRAL COMPOUNDS TARGETING THE SKI COMPLEX” (priority 2020, published 2024)
Values joined by “and” are separate entries in the source; they are usually repeats but may differ in a detail not shown here. Equal entries are not always repeated. Where two headings read alike, the source gives them in different places.

Experiments:
SARS2 = format: cell-based, SARS-CoV-2; details: for Infection Data: Percentage Infection Relative to Appropriate DMSO Control / Percentage Infection Relative to Appropriate DMSO Control / Percentage Infection Relative to Appropriate DMSO Control, Mean / Infection Data, Percentage Infection Relative to Appropriate DMSO Control: avg background subtraction; for Infection Data: Percentage Infection Relative to Appropriate DMSO Control: replicate wells; for Infection Data: Average, Mean: average of Exp 1-3 (SMW475, SMW477, SMW478), n 9; for Infection Data, Average, Mean percentage infection relative to DMSO control: Average of Exp 1 (SMW491) and Exp 2 (SMW492); for Percentage Infection Relative to Appropriate DMSO Control, Mean: Average of Exp 1 and Exp 2, n=4; for Infection Data, Percentage Infection Relative to Appropriate DMSO Control: single well
WDR61 = WDR61 (Homo sapiens, UniProt Q9GZS3); test: Surface Plasmon Resonance with pure WDR61 protein

## COc1ccc(CNCCc2ccccc2F)c(OCC(O)CN2CCN(C)CC2)c1 (racemic) [UMB18G]
SARS2; 25 uM, Exp 1 (SMW475)
  Infection Data: Percentage Infection Relative to Appropriate DMSO Control: 0.07% and −0.35% and −1.40%
SARS2; 25 uM, Exp 2 (SMW477)
  Infection Data: Percentage Infection Relative to Appropriate DMSO Control: 1.11% and 0.67% and 1.76%
SARS2; 25 uM, Exp 3 (SMW478)
  Infection Data: Percentage Infection Relative to Appropriate DMSO Control: 3.99% and 4.14% and 2.78%
SARS2; 25 uM
  Infection Data: Average, Mean: 1.42%
  Percentage Infection Relative to Appropriate DMSO Control, Mean: 3.40% and 3.46%
SARS2; 50 uM, Exp 1 (SMW454), single wells
  Percentage Infection Relative to Appropriate DMSO Control: 28.95% and 40.45% and 40.98%
SARS2; 50 uM, Exp 1 (SMW475)
  Infection Data: Percentage Infection Relative to Appropriate DMSO Control: −0.48% and −1.48% and 0.34%
SARS2; 50 uM, Exp 2 (SMW477)
  Infection Data: Percentage Infection Relative to Appropriate DMSO Control: 1.36% and 0.07% and 1.60%
SARS2; 50 uM, Exp 3 (SMW478)
  Infection Data: Percentage Infection Relative to Appropriate DMSO Control: 0.69% and 2.33% and 1.45%
SARS2; 50 uM
  Infection Data: Average, Mean: 0.65%
  Percentage Infection Relative to Appropriate DMSO Control, Mean: 2.64% and 2.63%
SARS2; n=4, 1 uM
  Infection Data, Average, Mean percentage infection relative to DMSO control: 65.84% and 39.37% and 49.93% and 57.24%
SARS2; n=4, 5 uM
  Infection Data, Average, Mean percentage infection relative to DMSO control: 54.32% and 40.70% and 42.82% and 28.04%
SARS2; n=4, 10 uM
  Infection Data, Average, Mean percentage infection relative to DMSO control: 8.53% and 5.08% and 5.96% and 7.33%
SARS2; n=4, 25 uM
  Infection Data, Average, Mean percentage infection relative to DMSO control: 11.20% and 7.36% and 4.36% and 11.41%
SARS2; n=4, 50 uM
  Infection Data, Average, Mean percentage infection relative to DMSO control: 8.04% and 0.83% and 7.39% and 10.06%
SARS2; Average of Exp 1-3, n 9, 1 uM
  Infection Data, Average, Mean: 79.70%
SARS2; Average of Exp 1-3, n 9, 5 uM
  Infection Data, Average, Mean: 44.64%
SARS2; Average of Exp 1-3, n 9, 10 uM
  Infection Data, Average, Mean: 52.11%
SARS2; Average of Exp 1-3, n 9, 25 uM
  Infection Data, Average, Mean: 19.49%
SARS2; Average of Exp 1-3, n 9, 50 uM
  Infection Data, Average, Mean: 11.46%
SARS2; 1 uM
  Percentage Infection Relative to Appropriate DMSO Control, Mean: 59.34% and 41.11%
SARS2; 5 uM
  Percentage Infection Relative to Appropriate DMSO Control, Mean: 26.29% and 13.69%
SARS2; 10 uM
  Percentage Infection Relative to Appropriate DMSO Control, Mean: 6.07% and 4.47%
SARS2; Exp 1 (SMW491), 10 uM
  Infection Data, Percentage Infection Relative to Appropriate DMSO Control: 5.19% and 1.05% and 0.23% and 2.20% and 5.21% and 4.17% and 3.28% and 4.40%
SARS2; Exp 1 (SMW506), 10 uM, single wells
  Percentage Infection Relative to Appropriate DMSO Control: 6.99% and 10.55% and 9.19% and 3.42%
SARS2; Exp 1 (SMW506), 25 uM, single wells
  Percentage Infection Relative to Appropriate DMSO Control: 4.49% and 2.30% and 4.05% and 3.63%
SARS2; Exp 1 (SMW506), 50 uM, single wells
  Percentage Infection Relative to Appropriate DMSO Control: 4.22% and 4.54% and 5.07% and 2.41%
SARS2; Exp 2 (SMW466), 10 uM
  Percentage Infection Relative to Appropriate DMSO Control: 10.03% and 6.17% and 9.36%
SARS2; Exp 2 (SMW466), 25 uM
  Percentage Infection Relative to Appropriate DMSO Control: −0.69% and −1.02% and −1.54%
SARS2; Exp 2 (SMW466), 50 uM
  Percentage Infection Relative to Appropriate DMSO Control: −0.97% and −1.80% and 1.96%
SARS2; Exp 2 (SMW492), 1 uM
  Infection Data, Percentage Infection Relative to Appropriate DMSO Control: 87.68% and 68.32% and 72.99% and 69.05% and 75.23% and 75.22% and 50.23% and 54.62%
SARS2; Exp 2 (SMW492), 10 uM
  Infection Data, Percentage Infection Relative to Appropriate DMSO Control: 15.18% and 12.71% and 12.92% and 8.48% and 10.42% and 9.51% and 5.72% and 6.91%
SARS2; Exp 2 (SMW492), 1 uM, single wells
  Percentage Infection Relative to Appropriate DMSO Control: 34.50% and 31.39% and 22.69% and 24.33%
SARS2; Exp 2 (SMW492), 5 uM, single wells
  Percentage Infection Relative to Appropriate DMSO Control: 5.38% and 4.98% and 4.24% and 4.87%
SARS2; Exp 2 (SMW492), 10 uM, single wells
  Percentage Infection Relative to Appropriate DMSO Control: 3.43% and 3.30% and 3.52% and 1.74%
SARS2; Exp 2 (SMW492), 25 uM, single wells
  Percentage Infection Relative to Appropriate DMSO Control: 4.70% and 2.08% and 5.51% and 0.65%
SARS2; Exp 2 (SMW492), 50 uM, single wells
  Percentage Infection Relative to Appropriate DMSO Control: 1.27% and 0.52% and 1.57% and 1.49%
SARS2; Exp 3 (SMW480), 1 uM
  Percentage Infection Relative to Appropriate DMSO Control: 54.21% and 61.59% and 57.93%
SARS2; Exp 3 (SMW480), 5 uM
  Percentage Infection Relative to Appropriate DMSO Control: 19.54% and 24.35% and 30.13%
SARS2; Exp 3 (SMW480), 10 uM
  Percentage Infection Relative to Appropriate DMSO Control: 53.71% and 59.47% and 34.88%
SARS2; Exp 3 (SMW480), 25 uM
  Percentage Infection Relative to Appropriate DMSO Control: −0.67% and 2.60% and 2.37%
SARS2; Exp 3 (SMW480), 50 uM
  Percentage Infection Relative to Appropriate DMSO Control: −1.69% and −2.08% and −2.66%
SARS2; SARS2, 1 μM
  Percentage Inhibition Average 1 μM: 40.42%
SARS2; SARS2, 1 μM, 100=DMSO control
  Screening data (Relative infection to DMSO controls) Average 1 μM: 59.58
SARS2; SARS2, 5 μM
  Percentage Inhibition Average 5 μM: 68.79%
SARS2; SARS2, 5 μM, 100=DMSO control
  Screening data (Relative infection to DMSO controls) Average 5 μM: 31.21
SARS2; SARS2, 10 μM
  Percentage Inhibition Average 10 μM: 90.05%
SARS2; SARS2, 10 μM, 100=DMSO control
  Screening data (Relative infection to DMSO controls) Average 10 μM: 9.95
SARS2; SARS2, 25 μM
  Percentage Inhibition Average 25 μM: 93.14%
SARS2; SARS2, 25 μM, 100=DMSO control
  Screening data (Relative infection to DMSO controls) Average 25 μM: 6.86
SARS2; SARS2, 50 μM
  Percentage Inhibition Average 50 μM: 94.65%
SARS2; SARS2, 50 μM, 100=DMSO control
  Screening data (Relative infection to DMSO controls) Average 50 μM: 5.35
SARS2; SARS2, average over 1 to 50 uM, 100=DMSO control
  Average (relative infection to DMSO over the 5 tested concentrations): 22.59
WDR61
  direct binding to WDR61 by SPR: binding directly to WDR61
